Results published in EP4806892A1, “CEREBLON E3 UBIQUITIN LIGASE INHIBITOR” (GAN & LEE PHARMACEUTICALS CO., LTD., priority 2023, dated 2025).

Experiments:
AR protein = biological target: T1, AR protein (Homo sapiens, UniProt P10275); test: AR protein degradation in VCaP cells (Western blot); type: cell-based; conditions: 8h
T1 construct: AR-positive human prostate cancer cells VCaP (cell source: ATCC); host or cells: VCaP
T1 sequence (P10275 1-920): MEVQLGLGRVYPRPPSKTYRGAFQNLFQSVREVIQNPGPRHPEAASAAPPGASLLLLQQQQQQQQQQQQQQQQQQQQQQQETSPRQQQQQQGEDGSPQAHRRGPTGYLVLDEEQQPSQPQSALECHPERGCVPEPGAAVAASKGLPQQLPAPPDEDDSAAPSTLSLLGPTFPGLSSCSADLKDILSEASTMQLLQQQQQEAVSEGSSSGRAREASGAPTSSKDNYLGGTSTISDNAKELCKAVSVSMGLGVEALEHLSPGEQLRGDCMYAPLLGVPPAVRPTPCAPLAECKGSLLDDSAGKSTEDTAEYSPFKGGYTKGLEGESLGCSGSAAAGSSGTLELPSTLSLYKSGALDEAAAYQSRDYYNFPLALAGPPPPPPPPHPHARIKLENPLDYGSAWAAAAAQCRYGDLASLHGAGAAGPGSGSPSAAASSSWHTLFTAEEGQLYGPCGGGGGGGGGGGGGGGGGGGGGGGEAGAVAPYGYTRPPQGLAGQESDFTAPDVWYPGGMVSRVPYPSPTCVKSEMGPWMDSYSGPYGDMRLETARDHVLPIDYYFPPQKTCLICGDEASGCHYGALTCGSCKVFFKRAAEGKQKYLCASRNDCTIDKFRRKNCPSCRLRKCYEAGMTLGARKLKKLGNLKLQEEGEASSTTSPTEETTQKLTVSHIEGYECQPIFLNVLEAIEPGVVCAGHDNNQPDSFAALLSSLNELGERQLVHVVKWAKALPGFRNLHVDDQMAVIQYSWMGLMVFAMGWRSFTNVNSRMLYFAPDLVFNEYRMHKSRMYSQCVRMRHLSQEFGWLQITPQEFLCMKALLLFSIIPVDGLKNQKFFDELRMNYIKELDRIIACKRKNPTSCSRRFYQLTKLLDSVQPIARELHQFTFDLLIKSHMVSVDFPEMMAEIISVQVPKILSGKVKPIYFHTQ
Method: AR-positive human prostate cancer cells VCaP (cell source: ATCC) were cultured in DMEM (GiBco catalog number 11995-065) containing 10% FBS (Hyclone catalog number SH30406.05), and the cells were inoculated in a six-well microplate (Thermo catalog number 140675) at a density of 3 × 10^5 cells/well. After being cultured overnight in a carbon dioxide incubator (ESCO), the prepared compound of the present invention and the positive control sample ARV-766 (energy chemical) solution of different concentrations were added at a volume of 1 µL/well to make the final concentrations of the compound and the positive control sample reach 5nM and 0.5nM, respectively. At the same time, the corresponding solvent control was set and cultured for 8h. After 8h of culture, the culture medium was removed, and the cells were washed with PBS. RIPA lysis buffer containing 1% Protease Inhibitor Cocktail was added. After lysis and centrifugation, a total protein extract was obtained, and the protein concentration in the extract was detected by BCA method. Protein electrophoresis was performed using SDS-PAGE, and then the protein was transferred to a PVDF (Millipore Sigma catalog number PSRP010R5) membrane at a constant voltage of 100V for 60min. The PVDF membrane was placed in a 5% milk powder 1×TBST solution and blocked at room temperature for 1h. The primary antibody solution (Anti-Androgen receptor, Cell Signaling Technology catalog number: 5153S; 1:2000 dilution) was prepared and incubated at 4°C overnight. The primary antibody solution was discarded and the PVDF membrane was washed with 1×TBST for 5 minutes each time, three times. The secondary antibody solution (Thermo catalog number SA5-35571; 1:7500 dilution) was prepared and incubated at room temperature for 1 hour. The secondary antibody solution was discarded and the PVDF membrane was washed with 1×TBST for 5 minutes each time, three times. A dual-color infrared laser imaging system (Licor catalog number Odyssey CLX) was used for Western membrane imaging. The Image Studio software was used to analyze the grayscale of the bands. GAPDH protein bands were also detected for each sample as an internal reference. The AR protein degradation rate of the compound and the positive control sample was calculated based on the grayscale of the protein bands. Among them, "A" means degradation rate ≥ 50%, "B" means 50%> degradation rate ≥ 20%, "C" means 20% degradation rate ≥ 10%, and "D" means degradation rate less than 10%.

VCaP cell = VCaP cell proliferation inhibition (WST-8); type: cell-based; conditions: Homo sapiens, VCaP cells, 168 hours, read-out: IC50 for inhibiting VCAP cell proliferation
Method: VCaP cells (ATCC, CRL-2876) were cultured in DMEM (Gibco, 11995-065) complete medium containing 10% fetal bovine serum (Hyclone, SH30406.05). On the first day of the experiment, VCaP cells were seeded at a density of 15,000 cells/well in a 96-well plate using DMEM medium containing 10% fetal bovine serum, with 100 µL of cell suspension per well, and cultured overnight in a cell culture incubator at 37°C and 5% CO2. […] The final concentration of the compound was 9 concentration points of 5-fold serial dilution starting from 10 µM. The wells to which 100 µL of DMEM medium containing 10% fetal bovine serum was added were set as blank controls and cultured in a cell culture incubator at 37°C and 5% CO2 for 168 hours. On the ninth day, the 96-well cell culture plate was removed and 1/10 volume of WST-8 (Beytime, C0040) reagent was added to each well. The absorbance at 450 nm was measured using a microplate reader (TECAN, F50).

Compound	Degradation rate of AR protein in VCAP cells (AR protein; 5 nM)	IC50 (VCaP cell) [nM]	Degradation rate of AR protein in VCAP cells (AR protein; 0.5 nM)
C[C@H]1CC2(CCN(c3ccc(C(=O)N4CCC(CN5CCC6(COc7cc(N8CCC(=O)NC8=O)ccc76)C(F)(F)C5)CC4)cc3)CC2)CN1c1ccc(C#N)c(Cl)c1 (some centres unmarked) [A-P-233]	B (50%> degradation rate ≥ 20%)	15	
C[C@H]1CC2(CCN(c3ccc(C(=O)N4CCC(CN5CCN6c7ccc(N8CCC(=O)NC8=O)cc7OCC[C@H]6C5)CC4)cc3)CC2)CN1c1ccc(C#N)c(C(F)(F)F)c1 [A-P-195]	A (degradation rate ≥ 50%)	13	B (50%> degradation rate ≥ 20%)
COc1cc(O[C@H]2C(C)(C)[C@H](NC(=O)c3ccc(N4CCC(F)(CN5CCN6c7ccc(N8CCC(=O)NC8=O)cc7OCC[C@H]6C5)CC4)cc3)C2(C)C)ccc1C#N [A-P-196]	A (degradation rate ≥ 50%)	1	A (degradation rate ≥ 50%)
COc1cc(O[C@H]2C(C)(C)[C@H](NC(=O)c3ccc(N4CCC(CN5CCN(c6ccc(C(=O)N[C@H]7CCC(=O)NC7=O)c(F)c6)CC5)CC4)cc3)C2(C)C)ccc1C#N [ARV766, reference compound]	A (degradation rate ≥ 50%)	2.5	A (degradation rate ≥ 50%)
C[C@H]1CC2(CCN(c3ccc(C(=O)N4CCC(CN5CCC6(CC5)CN(C)c5ccc(N7CCC(=O)NC7=O)cc5O6)CC4)cc3)CC2)CN1c1ccc(C#N)c(Cl)c1 [A-P-235, (S)-2-chloro-4-(8-(4-(4-((7-(2,4-dioxotetrahydropyrimidin-1(2H)-yl)-4-methyl-3,4-dihydrospiro[benzo[b][1,4]oxazin-2,4'-piperidine]-1'-yl)methyl)piperidine-1-carbonyl)phenyl)-3-methyl-2,8-diazaspiro[4.5]decane-2-yl)benzonitrile]	A (degradation rate ≥ 50%)	1	A (degradation rate ≥ 50%)
